Assay results taken from patent US4091206A, “Quinoxaline-1,4-dioxide derivatives” (Egyt Gyogyszervegyeszeti Gyar, priority 1974, dated 1978).

Assays:
[1] = oral toxicity on mice; conditions: mouse, in vivo
From the text: (§1) The fodder utilization factors determined for the compounds according to the invention, furthermore the oral toxicity data of the novel compounds measured on mice are listed in Table 1. For the sake of comparison the respective data of some known compounds structurally related to those of formula I are also given.

[2] = system: pigs; assay: weight gain increasing effect on pigs (fodder admixed with compound), fodder utilization factor; type: in vivo; conditions: fodder admixed with 50 mg./kg. of compound, index from feeding coefficient and percentage daily weight gain, control 50
Protocol: When utilized as fodder additives, the new compounds according to the invention increase the weight gain and fodder utilization of pigs. The weight gain increasing effect of the compounds was tested on pigs as follows:
The animals were fed under the same conditions with fodders of the same amount and composition. In the test groups the animals received a fodder admixed with 50 mg./kg. of the compound to be tested, whereas no additive was admixed with the fodder in the control group.
The weight gain was measured daily, and the feeding coefficient (amount of consumed fodder resulting in a weight gain of 1 kg.) was calculated. The percentage daily weight gain was calculated by the formula [formula]
Since the rate of weight gain increasing effect depends on both the feeding coefficient and the percentage daily weight gain, and because of the actual fodder consumption and the time required to reach the slaughter weight are the important factors of economical animal husbandry, an index characteristic of the rate of weight gain increase was calculated from the above data by the equation [formula] The higher is the fodder utilization factor the more economic is the pig-breeding.
as §1

SMILES | LD50 ([1]; po) [mg/kg] | Fodder utilization factor [2] | LD50 ([1]; oral, mice) [mg/kg]
O=C(Cc1cccc2ccccc12)NN=Cc1c[n+]([O-])c2ccccc2[n+]1[O-] [1-napthylmethyl, 2-(1'-Naphthyl-acetyl)-hydrazono-formyl-quinoxaline-1,4-dioxide] | 13000 | 93.5 | 
O=C(NN=Cc1c[n+]([O-])c2ccccc2[n+]1[O-])c1ccncc1 [Example 4-pyridyl, 2-(Isonicotinoyl)-hydrazono-formyl-quinoxaline-1,4-dioxide] |  | 91 | 12000
O=C(NN=Cc1c[n+]([O-])c2ccccc2[n+]1[O-])c1ccc([N+](=O)[O-])o1 [Example 5-nitrofuryl, 2-(5'-Nitro-2'-furanoyl)-hydrazono-formyl-quinoxaline-1,4-dioxide] | 14000 | 91 | 
CCCCCCC(=O)NN=Cc1c[n+]([O-])c2ccccc2[n+]1[O-] [hexyl, 2-(Hexylcarbonyl-hydrazono-formyl)-quinoxaline-1,4-dioxide] | 4000 | 53 | 
COC(=O)NN=Cc1c[n+]([O-])c2ccccc2[n+]1[O-] [methoxy, 2-(Methoxycarbonyl-hydrazono-formyl)-quinoxaline-1,4-dioxide] |  | 66 | 4000
O=C(NN=Cc1c[n+]([O-])c2ccccc2[n+]1[O-])c1ccccc1 [phenyl, 2-(Benzoyl-hydrazono-formyl)-quinoxaline-1,4-dioxide] |  | 66 | 4000
